The values that follow come from patent publication US12410153B2, “Compounds, compositions and methods” (Avalo Therapeutics, Inc., priority 2014, dated 2025).

Data set [1] has as its system systemic blood pressure and heart rate. Kind of data set: Blood pressure profile in chronically instrumented (telemetered) rats. The format is in vivo, rat. As for the experimental part: A single oral gavage dose was administered (volume: 5 mL/kg). […] Following the completion of the Latin square, two additional dose concentrations were evaluated (0.6 and 10 mg/kg, n=3 per group).
All IV doses were administered in manually restrained rats via tail vena-puncture. It should be noted that vehicle controls were also administered.
A 24-hour recording was performed prior to dosing (vehicle alone) and after each oral dose.

The nature of data set [2]: Polymorph stability (slurry and heating, XRPD). The format is physicochemical. As to conditions: heating to 115° C. As to the method: Crystalline Form II of Compound (I) was characterized using X-ray powder diffraction (XRPD) (FIG. 1A). The XRPD pattern corresponds to an anhydrous form denoted as Form II, which is highly crystalline. In addition to Form II, Compound (I) can exist as another anhydrous polymorph, denoted as Form I. The XRPD patterns of these phases are shown in FIG. 1B. A slurry experiment was performed at room temperature by adding approximately equal proportions of the two anhydrous phases to methyl-tert-butyl ether.

Data set [3] has as its system Sprague-Dawley rats. Kind of data set: Rat forced swim test 24 hours after administration. The settings on record: 10 mg/kg, i.p., 24 hours before test, p<0.05. The class given is in vivo. As to the method: This study aimed to evaluate the duration of the antidepressant-like effects of Form II of Compound (I) using the forced swim test in male, Sprague-Dawley rats. Clinically effective antidepressant compounds reduce immobility time and increase swimming in rodents subjected to this test. Rats received Compound (I) (10 mg/kg, p.o.) or ketamine (10 mg/kg, i.p.) and 24 hours later were subjected to testing. […] The data represent mean±SEM.

Data set [4] is described as follows: Repeated once-daily oral dosing with food (Days 1-7) in healthy subjects, PK and PD. The settings on record: oral doses up to 20 mg. The class given is in vivo, human. As to the method: A randomized, double-blind, placebo-controlled, parallel-dose group in-patient study is conducted to investigate the pharmacodynamic (PD) effects of crystalline Form II of Compound (I) in healthy subjects.
The study is designed as a three-part, sequential study. The sequential nature of the study ensures that a range of doses are investigated first in a young, healthy population (Part 1) before proceeding to higher doses in the healthy population and the comparator populations (intermediate age and elderly) (Parts 2 and 3). For the purposes of this study, “young” refers to a subject who is 18 to 45 years of age, “intermediate age” refers to a subject who is 46 to 64 years of age, and “elderly” refers to a subject who is 65 years of age or older.
After a screening period of up to 21 days (Days −23 to −3), 16 healthy, young male and female subjects are randomly assigned to a dose group as shown in Table 9.
Each parallel dose group is balanced for gender (approximately equal number of males and females). The randomized subjects are domiciled from Day −1 through Day 8. On Day −1, the subjects receive placebo tablets in the fed state and undergo ambulatory blood pressure monitoring (ABPM) and safety assessments to establish time-matched baselines. On Days 1-7, the subjects receive the study drug in the fed state and undergo safety, pharmacokinetic (PK) and pharmacodynamics (PD) assessments. On Days 8-11, follow-up PK and safety assessments are performed.
Safety assessments include Clinician-Administered Dissociative States Scale (CADSS), Columbia-Suicide Severity Rating Scale (C-SSRS), concomitant medication, adverse event (AE) and vital sign assessments. In PK assessments, blood samples are taken and analyzed to determine PK parameters such as Cmax, Tmax, AUC0-24, and t1/2. PD assessments include ABPM, plasma brain-derived neurotrophic factor (BDNF) measurements, and Profile of Mood States (POMS) assessments.
After a screening period of up to 21 days (Days −23 to −3), 16 subjects (8 healthy, young male and female subjects, and 8 healthy, intermediate age male and female subjects) are randomly assigned to a dose group as shown in Table 10.
After a screening period of up to 21 days (Days −23 to −3), 16 subjects (8 healthy, young male and female subjects, and 8 healthy, elderly male and female subjects) are randomly assigned to a dose group as shown in Table 11.

The conditions of data set [5]: patients with TRMDD; Ibrahim et al. 2012; cited from earlier work.
The subject of data set [6] is Sprague-Dawley rats. Kind of data set: Acute depression model, forced swim test. The format is in vivo, rat. As to conditions: 20 mg/kg vs vehicle. As to the method:
Young, adult, male Sprague-Dawley rats were randomly assigned across the treatment groups and were administered vehicle (0.5% MC/0.02% SLS), the reference compound desipramine (20 mg/kg; a tricyclic antidepressant; Sigma, Lot #078K1326) dissolved in sterile water, or crystalline Form II of Compound (I) (0.1, 0.3, 1, 3, 10, and 30 mg/kg) suspended in 0.5% MC/0.02% SLS, twice on Day 1 (after habituation; ˜24 h prior to test, and prior to dark cycle) and once on Day 2 (30 min pre-test for desipramine and 45 min pre-test for Form II and vehicle).
Each Forced Swim chamber was constructed of clear acrylic (height, 40 cm; diameter, 20.3 cm). Rats were subjected to a pre-dose swim test of one 15-min session in cylinders containing water at 23° C.±1° C., followed approximately 24 h later by the experimental 5-min session. The water level was 16 cm deep during habituation and 30 cm deep during the test. Immobility, climbing, and swimming behaviors were recorded every 5 s for a total of 60 counts per subject. When an animal was unable to maintain a posture with its nose above water, it was immediately removed from the water and eliminated from the study. Blood was collected at the completion of swim test procedures and plasma was analyzed for Form II concentrations.

Where [7] appears, read: 1 mg/kg IV bolus, blocker alone.

Structures are written as SMILES.

Take `CC(C)NCC(O)COc1ccc(CC(N)=O)cc1` (stereo not drawn) [atenolol, reference compound]: in data set [1] (setting [7]), the HR change is −87±11 bpm and the MAP change is reported as −3.3±3.1 mmHg.
Turning to `Cc1ccc(COC(=O)N2CC[C@H](CNc3ncccn3)[C@H](F)C2)cc1` [Form I, 4-methylbenzyl (3S, 4R)-3-fluoro-4-[(pyrimidin-2-ylamino)methyl] piperidine-1-carboxylate], the “phase change on heating (XRPD of recovered solids)” value in data set [2] was “phase conversion to Form II”.
For the compound `CNC1(c2ccccc2Cl)CCCCC1=O` (stereo not drawn) [ketamine, reference compound], in the data set on Sprague-Dawley rats [3], the immobility result is listed as “reduced immobility” and the swim time entry was “increased swim time significantly”.
Consider `Cc1ccc(COC(=O)N2CC[C@H](CNc3ncccn3)[C@H](F)C2)cc1` [Compound (I), 4-methylbenzyl (3S, 4R)-3-fluoro-4-[(pyrimidin-2-ylamino)methyl] piperidine-1-carboxylate], for which, in data set [4], the “heart rates in human studies” value is listed as “have not been observed to increase to any significant degree”. The “primary hemodynamic observation in human studies” value in data set [4] was “transient increase in systolic and diastolic blood pressure”. The heart rate result is given as “modestly increased heart rate” in data set [1] (0.3 and 0.6 mg/kg oral); “increased HR dose proportionally” in data set [1] (between 1 and 10 mg/kg oral). The “magnitude of change in hemodynamics compared with MK-801 (0.2 mg/kg IV)” value in data set [1] (oral 0.3-10 mg/kg) is given as “significantly less than that of MK-801”. Besides, the arterial blood pressure entry in data set [1] (oral, dose-dependent between 0.3-1 mg/kg, plateaued at 1-10 mg/kg) was “increased arterial blood pressure transiently”. Moreover, the “HAM-D17 and Beck Depression Inventory (BDI)” value in data set [5] is recorded as “showed antidepressant effects”.
Regarding `CNCCCN1c2ccccc2CCc2ccccc21` [Desipramine, reference compound], in the data set with Sprague-Dawley rats [6], the swimming behavior entry is “no change”. Besides, the immobility result in the data set with Sprague-Dawley rats [6] (P<0.001) was “significantly decreased”. The climbing behavior entry in the data set with Sprague-Dawley rats [6] (P<0.01) is recorded as “significantly increased”.
